{"source": "paper PMC8263619", "about": "“Functional characteristics of a novel odorant binding protein in the legume pod borer, Maruca vitrata” (Scientific Reports, 2021)", "key": {"MvitOBP3 protein": {"target": "MvitOBP3 protein", "assay": "Fluorescence competitive binding assay with 1-NPN probe", "set-up": "species or system Maruca vitrata", "details": "recombinant MvitOBP3, 1-NPN fluorescent probe; for IC50: read-out: IC50, ligand concentration displacing 50% of the fluorescence intensity of the MvitOBP/N-phenyl-1-naphthylamine complex; for Ki: read-out: Ki, dissociation constant", "method": "The fluorescence measurement takes advantage of the fluorescent properties of the dye, 1-NPN (N-Phenyl-1-naphthylamine, CAS 90-30-2) and is performed by Hitachi F-4500. The wavelength of excitation light was 337 nm, the range of scanning emission wavelength was 350–500 nm, and the slit width was 5 nm. […] Add 2 mL of the protein with a final concentration of 2 μmol/L to a 1 cm, four-sided quartz cup, then add 1-NPN (1 mM/L) to the final concentration is 2–24 μmol/L. And recorded the maximum fluorescence value and determine the protein dissociation constant K1-NPN.\nIn fluorescence competitive binding assay, the 1-NPN was used as the fluorescent probe, and the dissociation constant (Ki) values of the MvitOBP3/1-NPN complexes were calculated according to the changes in the fluorescence intensity (Fig. 5A). […] These seventeen volatile ligands from host-plant were selected to test binding affinities of MvitOBP3 (Fig. 5 and Table 2)."}, "MvitGOBP2 protein": {"target": "MvitGOBP2 protein", "set-up": "method as in PMID 26517714", "details": "cited from earlier work"}, "MvitGOBP1": {"target": "MvitGOBP1", "set-up": "method as in PMID 26517714", "details": "cited from earlier work"}}}
{"molecule": "CC(C=O)Cc1ccccc1", "note": "(stereo not shown) [2-methyl-3-phenylpropanal]", "values": [{"measurement": "IC50", "setting": "MvitOBP3 protein", "value": 10.6, "unit": "µM"}, {"measurement": "Ki", "setting": "MvitOBP3 protein", "value": 9.38, "unit": "µM"}, {"measurement": "Ki", "setting": "MvitGOBP2 protein", "value": 3.81, "unit": "µM"}]}
{"molecule": "CC(=O)c1ccc(C(C)=O)cc1", "note": "[1,4-diacetyl benzene]", "values": [{"measurement": "IC50", "setting": "MvitOBP3 protein", "value": 28.4, "unit": "µM"}, {"measurement": "Ki", "setting": "MvitOBP3 protein", "value": 25.1, "unit": "µM"}]}
{"molecule": "CCc1ccc(C=O)cc1", "note": "[4-ethylbenzaldehyde]", "values": [{"measurement": "IC50", "setting": "MvitOBP3 protein", "value": 22.8, "unit": "µM"}, {"measurement": "Ki", "setting": "MvitOBP3 protein", "value": 20.1, "unit": "µM"}]}
{"molecule": "CCc1ccc(CC)cc1", "note": "[1,4-diethylbenzene]", "values": [{"measurement": "IC50", "setting": "MvitOBP3 protein", "value": 29.3, "unit": "µM"}, {"measurement": "Ki", "setting": "MvitOBP3 protein", "value": 25.9, "unit": "µM"}]}
{"molecule": "C=C(C)C1CC=C(C)CC1", "note": "(stereo not shown) [Limonene]", "values": [{"measurement": "IC50", "setting": "MvitOBP3 protein", "value": 9.4, "unit": "µM"}, {"measurement": "Ki", "setting": "MvitOBP3 protein", "value": 8.31, "unit": "µM"}, {"measurement": "Ki", "setting": "MvitGOBP1", "value": 13.8, "unit": "µM"}]}
{"molecule": "CCC(=O)c1ccc(CC)cc1", "note": "[4-ethylpropiophenone]", "values": [{"measurement": "IC50", "setting": "MvitOBP3 protein", "value": 26.7, "unit": "µM"}, {"measurement": "Ki", "setting": "MvitOBP3 protein", "value": 23.6, "unit": "µM"}, {"measurement": "Ki", "setting": "MvitGOBP1", "value": 14.2, "unit": "µM"}]}
{"molecule": "CCc1ccc(C(C)=O)cc1", "note": "[1-(4-ethylphenyl)-ethanone]", "values": [{"measurement": "IC50", "setting": "MvitOBP3 protein", "value": 24.1, "unit": "µM"}, {"measurement": "Ki", "setting": "MvitOBP3 protein", "value": 21.3, "unit": "µM"}]}
{"molecule": "CCCCCCCCOC(=O)CCC", "note": "[Butanoic acid octyl ester]", "values": [{"measurement": "IC50", "setting": "MvitOBP3 protein", "value": 21.2, "unit": "µM"}, {"measurement": "Ki", "setting": "MvitOBP3 protein", "value": 18.7, "unit": "µM"}, {"measurement": "Ki", "setting": "MvitGOBP2 protein", "value": 8.5, "unit": "µM"}]}
{"molecule": "Oc1cccc2[nH]ccc12", "note": "[1H-indol-4-ol]", "values": [{"measurement": "IC50", "setting": "MvitOBP3 protein", "value": 12.6, "unit": "µM"}, {"measurement": "Ki", "setting": "MvitOBP3 protein", "value": 11.2, "unit": "µM"}, {"measurement": "Ki", "setting": "MvitGOBP1", "value": 10.9, "unit": "µM"}]}
{"molecule": "O=Cc1ccccc1O", "note": "[2-hydroxybenzaldehyde]", "values": [{"measurement": "IC50", "setting": "MvitOBP3 protein", "value": 24.2, "unit": "µM"}, {"measurement": "Ki", "setting": "MvitOBP3 protein", "value": 21.4, "unit": "µM"}]}
{"molecule": "CCCCOC(=O)CCC", "note": "[Butanoic acid butyl ester]", "values": [{"measurement": "IC50", "setting": "MvitOBP3 protein", "value": 11.1, "unit": "µM"}, {"measurement": "Ki", "setting": "MvitOBP3 protein", "value": 9.79, "unit": "µM"}, {"measurement": "Ki", "setting": "MvitGOBP1", "value": 12.5, "unit": "µM"}]}
{"molecule": "CCc1cccc(CC)c1", "note": "[1,3-diethylbenzene]", "values": [{"measurement": "IC50", "setting": "MvitOBP3 protein", "value": 33.6, "unit": "µM"}, {"measurement": "Ki", "setting": "MvitOBP3 protein", "value": 29.7, "unit": "µM"}]}
{"molecule": "CC(=O)c1ccc(C)cc1C", "note": "[1-(2,4-Dimethylphenyl)-ethanone]", "values": [{"measurement": "IC50", "setting": "MvitOBP3 protein", "value": 21.4, "unit": "µM"}, {"measurement": "Ki", "setting": "MvitOBP3 protein", "value": 18.9, "unit": "µM"}]}
{"molecule": "O=Cc1ccccc1", "note": "[Benzaldehyde]", "values": [{"measurement": "IC50", "setting": "MvitOBP3 protein", "value": 43.3, "unit": "µM"}, {"measurement": "Ki", "setting": "MvitOBP3 protein", "value": 38.3, "unit": "µM"}]}
{"molecule": "Cc1cc(C)cc(C(C)(C)C)c1", "note": "[1-(1,1-Dimethylethyl)-3,5-dimethylbenzene]", "values": [{"measurement": "IC50", "setting": "MvitOBP3 protein", "value": 21.8, "unit": "µM"}, {"measurement": "Ki", "setting": "MvitOBP3 protein", "value": 19.3, "unit": "µM"}]}
{"molecule": "CC(=O)c1ccccc1", "note": "[Acetophenone]", "values": [{"measurement": "IC50", "setting": "MvitOBP3 protein", "value": 41.8, "unit": "µM"}, {"measurement": "Ki", "setting": "MvitOBP3 protein", "value": 37, "unit": "µM"}]}
{"molecule": "CC(=O)c1ccc(O)c(C)c1", "note": "[4-hydroxy-3-methylacetophenone]", "values": [{"measurement": "IC50", "setting": "MvitOBP3 protein", "value": 22.7, "unit": "µM"}, {"measurement": "Ki", "setting": "MvitOBP3 protein", "value": 20.1, "unit": "µM"}]}
